“Also recorded” adds a separate entry of the source.
Biological target: T1, SLC7A10+SLC3A2 (asc-1/4f2) (Homo sapiens, UniProt Q9NS82)
T1 construct: expressed in transfected cells; host or cells: Xenopus laevis oocytes (cRNA co-injection)
T1 sequence (Q9NS82 1-523): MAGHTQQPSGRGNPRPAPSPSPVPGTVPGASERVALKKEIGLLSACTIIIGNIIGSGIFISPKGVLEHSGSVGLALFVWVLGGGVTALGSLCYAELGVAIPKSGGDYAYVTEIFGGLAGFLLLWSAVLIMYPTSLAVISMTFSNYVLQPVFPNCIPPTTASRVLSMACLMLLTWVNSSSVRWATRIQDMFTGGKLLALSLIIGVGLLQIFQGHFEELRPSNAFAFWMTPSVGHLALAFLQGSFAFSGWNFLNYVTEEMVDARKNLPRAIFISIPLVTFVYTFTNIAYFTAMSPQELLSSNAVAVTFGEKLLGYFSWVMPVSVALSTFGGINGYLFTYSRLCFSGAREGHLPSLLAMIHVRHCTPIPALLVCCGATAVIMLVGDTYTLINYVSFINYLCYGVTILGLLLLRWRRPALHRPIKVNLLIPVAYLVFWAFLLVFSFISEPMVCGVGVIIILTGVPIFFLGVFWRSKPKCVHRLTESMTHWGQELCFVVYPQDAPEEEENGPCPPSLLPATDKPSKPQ
T1 sequence (P08195 1-529 partner): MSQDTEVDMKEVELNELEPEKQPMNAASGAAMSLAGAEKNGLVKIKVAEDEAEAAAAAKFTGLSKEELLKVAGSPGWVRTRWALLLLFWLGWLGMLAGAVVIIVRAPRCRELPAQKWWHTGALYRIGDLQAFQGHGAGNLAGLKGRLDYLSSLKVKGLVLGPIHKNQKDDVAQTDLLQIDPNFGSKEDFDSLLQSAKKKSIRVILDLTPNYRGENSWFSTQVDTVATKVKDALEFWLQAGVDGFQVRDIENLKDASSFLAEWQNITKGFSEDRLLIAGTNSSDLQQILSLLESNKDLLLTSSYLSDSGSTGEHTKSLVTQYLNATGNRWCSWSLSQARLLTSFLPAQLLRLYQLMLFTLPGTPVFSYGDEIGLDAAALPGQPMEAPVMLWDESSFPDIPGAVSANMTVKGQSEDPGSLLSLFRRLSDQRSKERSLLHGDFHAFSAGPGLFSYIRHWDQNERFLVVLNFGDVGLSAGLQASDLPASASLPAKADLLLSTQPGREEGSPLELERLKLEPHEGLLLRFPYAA
Assay: [3H]D-serine uptake in oocytes
Assay type: cell-based
Conditions: 10 µM BPOHP
Protocol: BPOHP activity was evaluated against the glutamate transporters paralogs within the SLC1A gene family (SLC1A 1–3) as well as at neutral amino acid transporters that share common ligand substrates with the SLC1 family including SLC38A1,2, and 4 (ATA1, ATA2, ATA3) and heteromeric transporters SLC7A10+SLC3A2 (asc-1/4f2). […] Finally, radiolabeled [^3H]D-serine uptake was used to assess the electroneutral SLC7A10+SLC3A2 transporter, in which 10 µM BPOHP had no effect (Figure S3).
Uptake was halted by washing 3 times with 4 °C ND96 buffer. Oocytes were then lysed in 0.1% Triton X-100, and radioactivity was counted via liquid scintillation. Dose response curves were generated by fitting fractional inhibition (I) to the expression I = Imax × [inhibitor]/([inhibitor] + IC50).
Figure SM-3A. Representative traces showing 100µM L-Ala currents and co-application of 3µM BPOHP (black bar) with no effect on SLC38A neutral amino acid transporters SLC38A1(ATA1), SLC38A2 (ATA2), and SLC38A4 (ATA3). SM-3B. [3H]D-serine uptake (100nM) in SLC1A4 is blocked by BPOHP (10µM), however, [ 3H]D-serine uptake by co -expressed SLC7A10+SLC3A2 (asc1+4F2) nor SLC3A2 (4f2) expressed (injected) alone was blocked by application of 10µM BPOHP.
Figure SM-4. Tosic acid approach to compound 12c. (i) Tosylic acid 0.1M in THF 60◦C. (ii) Phenol and NaH in DCM, 40◦C under argon balloon (iii) 10% Pd/C (10% w/eq.), H2, MeOH, H2O, […]

O=C(O)[C@H]1NC[C@@H](OCc2ccc(-c3ccccc3)cc2)[C@@H]1O [14e] was tested, and the “effect on [3H]D-serine uptake” value was “no effect; also recorded: no inhibition was detected”.
